The target in one assay is Prolyl endopeptidase (Mus musculus, UniProt Q9QUR6). Put plainly: Inhibition of PREP in C57BL/6 mouse cortex homogenate assessed as formation of 7-amido-4-methylcoumarin using Suc-Gly-Pro-amido-4-methylcoumarin as substrate preincubated for 30 mins followed by substrate addition measured after 60 mins by fluorometric assay.
Chain of Prolyl endopeptidase (Mus musculus, UniProt Q9QUR6) (Q9QUR6 whole entry): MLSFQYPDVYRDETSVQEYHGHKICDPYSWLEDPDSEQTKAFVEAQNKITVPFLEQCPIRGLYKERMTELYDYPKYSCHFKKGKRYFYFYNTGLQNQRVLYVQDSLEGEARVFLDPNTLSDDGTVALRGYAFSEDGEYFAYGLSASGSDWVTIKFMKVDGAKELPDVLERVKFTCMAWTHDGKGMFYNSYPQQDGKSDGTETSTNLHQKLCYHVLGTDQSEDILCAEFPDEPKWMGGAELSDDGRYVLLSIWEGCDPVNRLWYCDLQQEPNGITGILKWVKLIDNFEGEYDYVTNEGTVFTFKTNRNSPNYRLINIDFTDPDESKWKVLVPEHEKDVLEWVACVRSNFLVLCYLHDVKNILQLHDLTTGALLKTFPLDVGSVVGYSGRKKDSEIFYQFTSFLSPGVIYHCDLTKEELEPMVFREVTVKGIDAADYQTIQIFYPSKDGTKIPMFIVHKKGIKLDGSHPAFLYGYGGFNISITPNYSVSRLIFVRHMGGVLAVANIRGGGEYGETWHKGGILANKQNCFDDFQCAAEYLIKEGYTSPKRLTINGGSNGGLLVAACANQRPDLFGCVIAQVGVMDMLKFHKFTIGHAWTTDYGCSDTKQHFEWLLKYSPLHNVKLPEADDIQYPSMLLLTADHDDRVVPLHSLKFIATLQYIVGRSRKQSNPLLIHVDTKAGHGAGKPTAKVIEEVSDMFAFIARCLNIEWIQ
Usually IC50 stands for the midpoint of a concentration-inhibition curve. For the compound `N#C[C@@H]1CCCN1C(=O)CNC(=O)CCCc1ccccc1`, the IC50 is 0.264 µM.

Consider `O=C(CCCc1ccccc1)NCCC(=O)N1CCCC1`, for which the IC50 worked out at 12.1 µM.

For `C[C@H](NC(=O)CCCc1ccccc1)C(=O)N1CCC[C@H]1C(N)=O`, the IC50 turned out to be 6.21 µM. Turning to `NC(=O)[C@@H]1CCCN1C(=O)CNC(=O)CCCc1ccccc1`, the IC50 was 154 µM.

Turning to `C[C@@H](C(=O)N1CCC[C@H]1C(N)=O)N(C)C(=O)CCCc1ccccc1`, the IC50 worked out at 28.8 µM. For the compound `CC(C)(NC(=O)CCCc1ccccc1)C(=O)N1CCCC1`, the IC50 came to 13.5 µM. Take `C[C@H](NC(=O)CCCc1ccccc1)C(=O)N1CCC[C@H]1C#N`: the IC50 was 0.00328 µM. Consider `C[C@@H](C(=O)N1CCCC1)N(C)C(=O)CCCc1ccccc1`, for which the IC50 was found to be 0.298 µM. For the compound `CN(CC(=O)N1CCCC1)C(=O)CCCc1ccccc1`, the IC50 was 5.14 µM. On to `C[C@@H](NC(=O)CCCc1ccccc1)C(=O)N1CCCC1`, for which the IC50 amounted to 35.2 µM. Regarding `C[C@H](NC(=O)CCCc1ccccc1)C(=O)N1CCC[C@H]1c1nnn[nH]1`, the IC50 amounted to 0.091 µM. On to `CN(CC(=O)N1CCC[C@H]1C(N)=O)C(=O)CCCc1ccccc1`, for which the IC50 turned out to be 457 µM.

The target of the next assay is Prolyl endopeptidase (Sus scrofa, UniProt P23687). In words: Inhibition of recombinant porcine brain PREP expressed in Escherichia coli assessed as formation of 7-amido-4-methylcoumarin using Suc-Gly-Pro-amido-4-methylcoumarin as substrate preincubated for 30 mins followed by substrate addition measured after 60 mins by fluorometric assay.
Chain of Prolyl endopeptidase (Sus scrofa, UniProt P23687) (P23687 whole entry): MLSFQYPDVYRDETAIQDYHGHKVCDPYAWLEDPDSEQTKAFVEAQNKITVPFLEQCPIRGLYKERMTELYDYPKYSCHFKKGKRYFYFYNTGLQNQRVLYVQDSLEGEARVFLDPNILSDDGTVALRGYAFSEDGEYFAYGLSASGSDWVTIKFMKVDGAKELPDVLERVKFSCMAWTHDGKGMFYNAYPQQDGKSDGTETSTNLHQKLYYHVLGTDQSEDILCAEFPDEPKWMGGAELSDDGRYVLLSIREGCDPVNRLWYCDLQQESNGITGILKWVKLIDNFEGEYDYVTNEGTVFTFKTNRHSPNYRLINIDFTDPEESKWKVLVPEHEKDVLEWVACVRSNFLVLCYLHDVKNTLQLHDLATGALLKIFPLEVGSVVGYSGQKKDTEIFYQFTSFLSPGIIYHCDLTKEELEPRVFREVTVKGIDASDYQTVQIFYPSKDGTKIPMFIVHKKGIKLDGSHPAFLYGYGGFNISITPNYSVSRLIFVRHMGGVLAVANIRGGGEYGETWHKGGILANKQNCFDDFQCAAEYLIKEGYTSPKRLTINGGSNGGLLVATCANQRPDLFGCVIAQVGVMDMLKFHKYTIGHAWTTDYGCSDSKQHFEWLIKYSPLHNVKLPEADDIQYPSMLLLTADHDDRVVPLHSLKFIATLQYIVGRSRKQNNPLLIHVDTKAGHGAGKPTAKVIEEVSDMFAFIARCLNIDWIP
In the case of `N#C[C@@H]1CCCN1C(=O)CNC(=O)CCCc1ccccc1`, the IC50 amounted to 0.22 µM. For the compound `O=C(CCCc1ccccc1)N1CCC[C@H]1C(=O)N1CCC[C@H]1c1nnn[nH]1`, the IC50 was found to be 0.012 µM. For `C[C@H](NC(=O)CCCc1ccccc1)C(=O)N1CCC[C@H]1C(=O)O`, the IC50 was 17.5 µM. For `C[C@@H](C(=O)N1CCC[C@H]1c1nnn[nH]1)N(C)C(=O)CCCc1ccccc1`, the IC50 is 27.2 µM. `C[C@H](NC(=O)CCCc1ccccc1)C(=O)N1CCC[C@H]1C#N`: the IC50 was determined as 0.00406 µM. In the case of `NC(=O)[C@@H]1CCCN1C(=O)[C@@H]1CCCN1C(=O)CCCc1ccccc1`, the IC50 came to 4.37 µM. For `O=C(CCCc1ccccc1)NCC(=O)N1CCC[C@H]1c1nnn[nH]1`, the IC50 turned out to be 205 µM. For the compound `C[C@H](NC(=O)CCCc1ccccc1)C(=O)N1CCCC1`, the IC50 turned out to be 0.147 µM.

For `O=C(O)[C@@H]1CCCN1C(=O)[C@@H]1CCCN1C(=O)CCCc1ccccc1`, the IC50 is 3.63 µM. As to `CN(CC(=O)N1CCC[C@H]1C#N)C(=O)CCCc1ccccc1`, the IC50 came out at 0.269 µM. Same read-out and setting: for `CN(CC(=O)N1CCC[C@H]1c1nnn[nH]1)C(=O)CCCc1ccccc1` the value was 10.6 µM; for `C[C@@H](C(=O)N1CCC[C@H]1C#N)N(C)C(=O)CCCc1ccccc1`, 0.0054 µM.

(Values after ChEMBL document CHEMBL4406920, “Tetrazole as a Replacement of the Electrophilic Group in Characteristic Prolyl Oligopeptidase Inhibitors” (ACS Med Chem Lett, 2019).)
